# Legend:
# Type in all cases: cell-based
# collagen = assay: Collagen protein levels by ELISA in compound-treated human dermal fibroblasts; settings: 0.0005% compound, 48 hours; for collagen protein levels as measured by ELISA (in words): p<0.05; for Collagen (%): serum-free, collagen protein by ELISA
# miR-29a = assay: Inhibition of miR-29a by specific compounds in human dermal fibroblasts, qRT-PCR; settings: 0.0005% compound, 48 hours; for inhibition of miR-29a relative to vehicle treated cells (in words): p<0.05; for miR-29a (%): serum-free, relative to vehicle treated cells
# Experimental: (§1) The expression of miR-29a and miR29b in young versus old skin fibroblasts was examined by qRT-PCR.
# (§2) Human dermal fibroblasts were grown in the absence of serum overnight, followed by treatment with 0.0005% of test compounds in the absence of serum for 48 hours. Cells were analyzed for expression levels of miR-29a and miR-29b by qRT-PCR as described in Examples 1 and 2. […] All values are statistically significant at p<0.05.
# miR-29b = assay: Inhibition of miR-29b by specific compounds in human dermal fibroblasts, qRT-PCR; settings: 0.0005% compound, 48 hours; for inhibition of miR-29b relative to vehicle treated cells (in words): p<0.05; for miR-29b (%): serum-free, relative to vehicle treated cells
# Experimental: as §1, §2
structure (smiles),measurement,setting,value
"CC(C)CN(Cc1ccc(OS(C)(=O)=O)cc1)S(=O)(=O)c1ccccc1 [Compound 1, N-(2-methylpropyl)-N-[[4-[(methylsulfonyl)oxy]phenyl]methyl]-benzenesulfonamide]",collagen protein levels as measured by ELISA (in words),collagen,increased collagen protein levels
same,Collagen (%),collagen,102%
same,inhibition of miR-29a relative to vehicle treated cells (in words),miR-29a,significant inhibition
same,miR-29a (%),miR-29a,−61.57%
same,inhibition of miR-29b relative to vehicle treated cells (in words),miR-29b,significant inhibition
same,miR-29b (%),miR-29b,−85.00%
"CCOCCCNC(=O)c1cc(NC(=O)/C=C/c2ccccc2)ccc1N1CCC(Cc2ccccc2)CC1 [Compound 2, 2-(4-benzylpiperidin-1-yl)-N-(3-ethoxypropyl)-5-[(2E)-3-phenylprop-2-enamido]-benzamide]",collagen protein levels as measured by ELISA (in words),collagen,increased collagen protein levels
same,Collagen (%),collagen,30%
same,inhibition of miR-29a relative to vehicle treated cells (in words),miR-29a,significant inhibition
same,miR-29a (%),miR-29a,−33.67%
same,inhibition of miR-29b relative to vehicle treated cells (in words),miR-29b,significant inhibition
same,miR-29b (%),miR-29b,−61.53%

# Source: patent US8455518B2, “Method of treating skin with microRNA modulators” (Avon Products, Inc., priority 2010, dated 2013)
